Literature values as cited in patent US11723919B2, “Composition or combination comprising anionic dietary supplement and 25-hydroxy vitamin D” (Phibro Animal Health Corporation, priority 2020, dated 2023).

Test system: dairy cows
Settings: administration pre- or post-calving; Guo et al. 2018

## C=C1CC[C@H](O)C/C1=C/C=C1\CCC[C@]2(C)[C@@H]([C@H](C)CCCC(C)(C)O)CC[C@@H]12 [25-hydroxy vitamin D, 25-hydroxy vitamin D3]
  effect on milk yield: no effect
